Measurements as given in patent publication US5019492A, “Photographic element and process comprising a blocked photographically useful compound” (Eastman Kodak Company, priority 1989, dated 1991).

Legend:
[1] = Unblocking of shifted masking coupler in fixed unexposed strips (density at 520 nm); conditions: blocked compound
Procedure: Each compound was dispersed in an equal weight of 2,4-di-t-pentylphenol and coated in the following format on a poly(ethylene terephthalate) film support (unless otherwise specified, component amounts are given in mg/m^2 with silver halide counted as silver):
OVERCOAT Gelatin (2691); bis(vinylsulfonyl-
LAYER: methyl) ether hardener (1.75% of
EMULSION Gelatin (3767); unsensitized AgBr
LAYER: emulsion (906); masking coupler
Unexposed strips of this coated element were soaked 1 minute in a fixing solution to remove silver halide, washed, and then immersed in one of the following processing solutions at temperatures conventionally used for processing in a KODAK C-41 process:
P-1: pH 10 carbonate buffer
P-2: pH 10 carbonate buffer with 0.024M hydroxylamine sulfate
P-3: C-41 color developer with hydroxylamine sulfate omitted
P-4: C-41 color developer solution containing hydroxylamine sulfate

[2] = Deblocking of blocked filter dyes in C-41 developer with or without hydroxylamine sulfate at 38° C.; conditions: unblocked dye
Procedure: FILTER DYE Gelatin (4844); blocked filter dye
bis(vinylsulfonylmethyl) ether
Strips of each coating were soaked at 38° C. in C-41 developer or in the same C-41 developer formulation from which hydroxylamine sulfate (HAS) had been omitted. The rate of deblocking of each filter dye was followed by measuring the density at the absorption maximum of the unblocked dye at selected time intervals.

[3] = Model deblocking (hydrolysis) half-lives of esters with mononucleophile (A+B) or dinucleophile hydroxylamine (A+C), pH 10, 25° C.; type: physicochemical; conditions: for rate enhancement due to dinucleophile (hydroxylamine) participation, compared with comparison esters E-4 and E-5: pH 10.0, 25° C.; for Ratio (A+B half-life to A+C half-life): rate enhancement due to hydroxylamine
Procedure: Model studies were conducted on esters E-1 through E-5 to determine the possible rate enhancement which could be attained by using a dinucleophile rather than a mononucleophile to promote the removal from a phenolic moiety of a blocking group of this invention. Aqueous solutions A, B, and C, each containing 50% by volume of acetonitrile were prepared as follows (a separate solution A for each ester):
Solution A: 2.5 × 10^-4 M ester (or 2.5 × 10^-5 M
Solution B: 25% by volume carbonate buffer
(ionic strength 0.75); 0.05 N KCl
Solution C: Solution B with added 0.05 M
Then equal volumes of A and B (or A and C) were mixed at 25° C. to give a pH 10.0 solution and the reaction was followed by spectrophotometric measurements of the phenol (272 nm) or p-nitrophenol (402 nm) produced with time. In each case a reaction half-life (t1/2) was calculated from the equation t1/2 =1n(2)/k, where 1n(2) is the natural logarithm of 2 and k is the pseudo first-order rate constant calculated for the reaction. Smaller half-lives thus indicate more rapid reactions. The A+B combination provides an alkaline solution in which the main reactant is hydroxide ion (a mononucleophile) while in the A+C combination the active reactant is hydroxylamine (a dinucleophile). A ratio of the A+B half-life to the A+C half-life provides a measure of rate enhancement due to participation of hydroxylamine in the deblocking reaction.

SMILES	λmax (Unblocked) [2]	rate enhancement due to dinucleophile (hydroxylamine) participation, compared with comparison esters E-4 and E-5 [3]	Ratio (A+B half-life to A+C half-life) [3]	other results
CCC(C)(C)c1ccc(OCCCCNC(=O)c2cc(Oc3ccc(N=Nc4cc(OC(C)C(=O)O)c5ccccc5c4OC(=O)C4(C)CCCCC4=O)cc3)c3ccccc3c2O)c(C(C)(C)CC)c1 (stereo not drawn) [Compound 3]				absorption maximum (blocked) [1]: about 375 nm
CCCCCCCCCCCCOC(=O)c1ccc(N=Nc2ccc(N(CC)C(=O)OCc3ccc(OC(=O)C4(C)CCCCC4=O)c(NS(C)(=O)=O)c3)c(OC)c2)cc1 (stereo not drawn) [Compound 4]	440 nm			
CCCCCCCCCCCCOC(=O)c1ccc(N=Nc2ccc(N(CC)C(=O)OCc3ccc(OC(=O)C4(C)CCCCC4=O)c(Cl)c3)c(OC)c2)cc1 (stereo not drawn) [Compound 5]	440 nm			
CCCCCCCCCCCCN(C(=O)OCc1ccc(OC(=O)C2(C)CCCCC2=O)c(NS(C)(=O)=O)c1)c1ccc(N=Nc2ccc([N+](=O)[O-])cc2C(=O)OC)cc1OC (stereo not drawn) [Compound 6]	495 nm			
CC(=O)C(C)(C)C(=O)Oc1ccc([N+](=O)[O-])cc1 [Compound E-1]		twenty to seventy thousand times greater	36 × 10^3	
CC(=O)C(C)(C)C(=O)Oc1ccccc1 [Compound E-2]		twenty to seventy thousand times greater	93 × 10^3	
CC1(C(=O)Oc2ccccc2)CCCCC1=O (stereo not drawn) [Compound E-3]		twenty to seventy thousand times greater	3.2 × 10^6	
CC(=O)CCC(=O)Oc1ccccc1 [Compound E-4, reference compound]			47	
CC(=O)CC(C)(C)C(=O)Oc1ccccc1 [Compound E-5, reference compound]			166	
